Where two headings read alike, the source gives them in different places. Blank lines part the entries; values can stand above or below the compound they belong to.
Experiments:
[1] = tested on: rat bladder cancer AY-27 cells; test: MTT cell growth and proliferation assay, AY-27 cells; assay type: cell-based; conditions: Rattus norvegicus, read-out: IC50, inhibition of cell proliferation
Description: (§1) FIG. 3. The effect of AITC on cell survival and proliferation. AITC was evaluated at the indicated concentrations in human bladder cancer UM-UC-3 cells, rat bladder cancer AY-27 cells, and normal human bladder epithelial cells (HUC). A. Cell growth inhibition, measured by MTT assay, 72-h AITC treatment. IC50 was calculated from nonlinear regression curve fit. B. Cell cycle arrest (□, subG1; ? , G1; ? , 5; ▪, G2/M), measured by flow cytometry, 24 h AITC treatment. C. Apoptosis induction, measured by an ELISA assay, 24 h AITC treatment. Mean±SE, n=3-6), *P<0.05.
(§2) FIG. 10. The effect of NAC-AITC on cell survival and proliferation. NAC-AITC was evaluated in both UM-UC-3 cells and AY-27 cells. (A) Chemical structures of AITC and NAC-AITC. (B) Cell growth and proliferation, measured by 3-([…])-2,5-diphenyltetrazolium bromide assay, 72 h treatment with AITC or NAC-AITC at indicated concentrations. IC50 was calculated from the non-linear regression curve fit. (C) Apoptosis, measured by an enzyme-linked immunosorbent assay, 24 h NAC-AITC treatment at 15 µM. (D) Cell cycle (open bars, G1; shaded bars, S; closed bars, G2/M), measured by flow cytometry, 24 h NAC-AITC treatment at 15 μM. *P<, 0.005, compared with control.
(§3) Assays for cell proliferation, cell cycle arrest and apoptosis. To determine the antiproliferative activity of NAC-AITC, AY-27 cells were grown in 96-well microtiter plates ([…] with 0.15 ml medium per well) for 24 h and then grown for 72 h in fresh medium (0.2 ml/well) containing a series of concentrations of NAC-AITC or solvent. Cell growth was measured at the end of treatment using the 3-([…])-2,5-diphenyltetrazolium bromide assay, from which the half maximal inhibitory concentration (IC50) of NAC-AITC was calculated. AITC was also evaluated for comparison.

[2] = tested on: human bladder cancer UM-UC-3 cells; test: MTT cell growth and proliferation assay, UM-UC-3 cells; assay type: cell-based; conditions: Homo sapiens, read-out: IC50, inhibition of cell proliferation
Description: as §1, §2, §3

[3] = tested on: orthotopic AY-27 bladder tumor; test: Orthotopic rat bladder cancer model; assay type: in vivo, rat (female F344); conditions: for tumor-bearing bladders showing muscle invasion: control 71%
From the text: FIG. 6. […] Female F344 rats were inoculated intravesically with bladder cancer AY-27 cells to initiate development of orthotopic bladder tumor. Oral administration of AITC at 0, 10, 25, 50 and 300 micromols/kg once daily was started 1 day after AY-27 cell inoculation and ended 3 weeks later. The number of rats per group varied from 6 to 33; some of the data, particularly the control group (n=33) and the group treated with the lowest dose of AITC (n=23), were pooled from several experiments. A. The initial and final body weights. B. The weights of bladder tumors. […] C. Percentage of bladders where the tumor invaded the muscle tissue. D. H/E staining of the normal rat bladder wall (D1), a superficial rat bladder tumor (D2), and a rat bladder tumor that invaded the muscle layer (D3).
FIG. 8. […] Female F344 rats were inoculated with AY-27 cells intravesically via a urethra catheter to initiate development of orthotopic bladder cancer. Oral administration of MSP-1 of vehicle (water) once daily was started 1 day after cancer cell inoculation and ended 3 weeks later. The number of rats per group varied from 11-29. A. Initial (□) and final (▪) body weights. […] Each value in A and B is mean±SEM. C. Percentage of bladder where the tumor invaded the muscle tissue. D. The effects of MSP-1 on selected anticancer targets in UM-UC-3 cells (in vitro), AY-27 cells (in vitro) and AY-27 tumors (in vivo). […] The bladder tumors were removed from rats treated with MSP-1 at the sinigrin doses of 9 or 90 micromols/kg once daily for 3 weeks, started 1 day after cancer cell inoculation. Cell lysates and tumor homogenates were analyzed by Western blotting, using GAPDH as a loading control.
FIG. 9. […] Female F344 rats were inoculated with bladder cancer AY-27 cells to initiate development of orthotopic bladder tumor. Oral administration of the powder (sinigrin and glucoraphanin: each at 10 micromols/kg) once daily was started 1 day after AY-27 cell inoculation and ended 3 weeks later. The number of rats per group was 9-10. Each value is mean±SE.
FIG. 12. […] Bladder cancer was initiated in female F344 rats by orthotopic inoculation of bladder cancer AY-27 cells. Oral administration of NAC-AITC at 10 μmmol/kg body wt once daily was started 1 day after cancer cell inoculation and ended 3 weeks later. There were 23 rats in the control group and 15 rats in the treatment group. (A) The initial (open bars) and final (closed bars) body weight. (B) Bladder tumor weight. Each value is a mean±SE. (C) Percentage of bladders where the tumor invaded the muscle tissue.
AITC was evaluated in an orthotopic rat bladder cancer model. […] Daily oral administration of AITC was initiated one day after instillation of AY-27 cells and continued for 3 weeks. AITC was evaluated at 4 dose levels: 10, 25, 50 and 300 micromols/kg. […] FIG. 6D depicts representative images of normal rat bladder wall (D1), a superficial AY-27 rat bladder tumor (D2), and a muscle-invasive AY-27 rat bladder tumor (D3).
A syngeneic orthotopic rat bladder cancer model.

[4] = tested on: AY-27 cells; test: Cell cycle arrest by flow cytometry, AY-27 cells; assay type: cell-based, rat; conditions: 24 h
Description: as §1, §2
The effect of NAC-AITC on cell cycle progression was measured by flow cytometry as described previously. Briefly, 1.5×10^6 AY-27 cells were grown in each 10-cm plate with 10 ml medium for 24 h and then treated with NAC-AITC or solvent for 24 h before analysis. Induction of apoptosis by NAC-AITC was measured using the Cell Death Detection ELISA^plus kit (Roche Diagnostics, Indianapolis, Ind.), following the manufacturer's instruction. […] At the end of treatment, the cells were treated with lysis buffer, and after a low-speed centrifugation, a portion of the supernatant fraction was used for spectroscopic measurement (expressed as A405-490 nm) of cytoplasmic levels of histone-associated mononucleosomes or oligonucleosomes by an enzyme-linked immunosorbent assay. […]

[5] = tested on: AY-27 cells; test: Apoptosis induction ELISA (histone-associated DNA), AY-27 cells; assay type: cell-based, rat; conditions: 24 h
Description: as §1, §2
The effect of NAC-AITC on cell cycle progression was measured by flow cytometry as described previously. […]

[6] = 10 μmol/kg body wt oral once daily, 3 weeks

IC50 ([1]; AY-27, Example 9, 72 h treatment): 9.1 µM | IC50 ([2]; UMUC3, Example 9, 72 h treatment): 7.4 µM
SMILES: C=CCNC(=S)SC[C@H](NC(C)=O)C(=O)O [NAC-AITC, N-acetyl-S—(N-allylthiocarbamoyl)cysteine]
inhibition of muscle invasion [3, 6]: 49% | inhibition of tumor growth [3, 6]: 40% | effect on body weight ([3]; NAC-AITC 10 μmol/kg daily, 3 weeks): no significant effect on body weight | bladders with muscle invasion ([3]; NAC-AITC 10 μmol/kg, control 79%): 30% | cells in G2/M phase ([4]; NAC-AITC 15 µM, control 11-12%): 45% | increase in apoptotic activity ([5]; 15 μM): 10.6 fold

SMILES: C=CCN=C=S [AITC, allyl isothiocyanate]
IC50 ([1]; AY-27, 72 h): 3.3 µM | IC50 ([2]; UMUC3, 72 h): 2.7 µM | inhibition of muscle invasion [3, 6]: 73% | inhibition of tumor growth [3, 6]: 30% | tumor-bearing bladders showing muscle invasion ([3]; AITC 10 micromols/kg): 18.9% | tumor-bearing bladders showing muscle invasion ([3]; AITC 25 micromols/kg): 27% | tumor-bearing bladders showing muscle invasion ([3]; AITC 50 or 300 micromols/kg): 50% | inhibition of orthotopic bladder cancer growth ([3]; AITC 300 micromols/kg oral daily, 3 weeks): 20% | inhibition of tumor growth ([3]; AITC lower dose levels (10, 25, 50 micromols/kg) oral daily, 3 weeks): 30% | cells in G2/M phase ([4]; AITC 7.5-15 microM, control 9.9-11.5%): ≤ 49% | increase in subG1 population ([4]; AITC): ≤ 7.8 fold | increase in cytoplasmic levels of histone-associated DNA ([5]; AITC): ≤ 5.2 fold
